Measured values taken from patent US20250313596A1, “BACILLUS SUBTILIS STRAINS PRODUCING NEW MYCOSUBTILIN ISOFORMS” (Universite de Lille, priority 2022, published 2025).
≈ marks a conversion by molar mass, not a printed value. Where two headings read alike, the source gives them in different places. Where a SMILES comes first, the peptide text is derived from it. [ ]: non-standard residue; d: D form.

Legend:
[1] = tested on: Z. tritici; type: cell-based; conditions: for ECS0 (μg/ml) Z. tritici: concentration that reduces fungal strain growth by 50%; for EC95 (μg/ml) Z. tritici: concentration that reduces pathogen growth by 95%
Protocol: (§1) Three different fungal strains were tested for their antifungal activity: B. cinerea, Aspergillus sp. and Z. tritici. In addition to the two conventional isoforms, three new isoforms are being tested for their antifungal properties. A range of concentrations (μg a.i./ml or ppm) 0; 0.0037; 0.0146; 0.0586; 0.2344; 0.9375; 3.75 and 15 is used to determine the activity coefficient. Based on this concentration range, the EC50 (concentration that reduces fungal strain growth by 50%) and EC95 (concentration that reduces pathogen growth by 95%) were calculated and presented as disclosed in Table 5.
4.3 Antifungal Activity on Z. Tritici

[2] = tested on: B. cinerea; type: cell-based; conditions: for ECS0 (μg/ml) B. cinerea: concentration that reduces fungal strain growth by 50%; for EC95 (μg/ml) B. cinerea: concentration that reduces pathogen growth by 95%
Protocol: as §1
4.1 Antifungal Activity on B. cinerea

[3] = tested on: Vero cells; type: cell-based
Protocol: The cytotoxicity test is performed using Vero cells and the CyQUANT™ XTT Cell Viability assay kit (supplied by Invitrogen™).
Samples are dissolved in 100% DMSO at a concentration of 20-50 g/L. The final concentration in DMEM medium is 40 μg/L. Cells were prepared in flasks containing DMEM cell culture medium with 10% FBS as follows:
A 175 ml flask containing 20-30 million cells with 25 ml medium and 2 ml trypsin was added. Then the medium was discarded as the cells were attached to the flask wall. Rinse twice with PBS, then trypsin was added to detach cells from the flask wall. The mixture was incubated for 5 min at 37° C. To inactivate trypsin, 6 ml […] was added to the medium (twice the volume of the original trypsin in the medium).
In a 50 ml flask, the medium was centrifuged for 5 min at 300 g. […]. The medium was discarded, and the cells were resuspended. 100 μL of cells were added to 100 μL of dye, then 12 μL was used for counting. The percentage of viability was compared with a control of cells without any treatment.
The test is performed in a 96-well plate. A range of concentrations (mg/l) 0.14; 0.28; 0.56; 1.16; 2.25; 4.5 is used to determine the toxicity limit of each isoform.

[4] = tested on: Aspergillus sp.; type: cell-based
Protocol: as §1
4.2 Antifungal Activity on Aspergillus sp.

[5] = tested on: B. cinerea; conditions: Béchet et al., 2013; cited from earlier work
[6] = tested on: A. niger; conditions: Guez et al., 2022; cited from earlier work
[7] = tested on: rats; conditions: 28-day treatment and 14 days recovery period; cited from earlier work

## CCCCCCCCCCCCCC[C@@H]1CC(=O)N[C@@H](CCC(N)=O)C(=O)N[C@H](Cc2ccc(O)cc2)C(=O)N[C@H](CC(N)=O)C(=O)N[C@@H](CCC(N)=O)C(=O)N2CCC[C@H]2C(=O)N[C@H](CO)C(=O)N[C@@H](CC(N)=O)C(=O)N1 [Gln1-C17]
[1]; Z. tritici
  antifungal efficacy in words: effective against this fungal strain, but at a higher concentration
[1]
  ECS0 (μg/ml) Z. tritici: 2.156 µg/mL
  EC95 (μg/ml) Z. tritici: 17.040 µg/mL (≈ 15.5 µM)
[2]; B. cinerea
  antifungal efficacy in words: effective against this fungal strain, but at higher concentrations
[2]
  ECS0 (μg/ml) B. cinerea: 0.920 µg/mL
  EC95 (μg/ml) B. cinerea: 1.117 µg/mL (≈ 1.02 µM)
[3]
  EC50 (cell viability): around 3.4 mg/L
[4]
  EC50 value: 1.019 ppm
[4]; Aspergillus sp.
  EC95 value: 1.290 ppm
  antifungal efficacy in words: effective against this fungal strain

## CCCCCCCCCCCCCC[C@@H]1CC(=O)N[C@@H](CC(N)=O)C(=O)N[C@H](Cc2ccc(O)cc2)C(=O)N[C@H](CCC(N)=O)C(=O)N[C@@H](CCC(N)=O)C(=O)N2CCC[C@H]2C(=O)N[C@H](CO)C(=O)N[C@@H](CC(N)=O)C(=O)N1 [Gln3-C17] (HELM PEPTIDE1{N.[dY].[dQ].Q.P.[dS].N.[CCCCCCCCCCCCCC[C@H](CC(=O)[*:2])N[*:1]]}$PEPTIDE1,PEPTIDE1,1:R1-8:R2$$$V2.0)
[1]
  ECS0 (μg/ml) Z. tritici: 4.314 µg/mL
  EC95 (μg/ml) Z. tritici: 16.078 µg/mL (≈ 14.6 µM)
[2]
  ECS0 (μg/ml) B. cinerea: 1.646 µg/mL
  EC95 (μg/ml) B. cinerea: 3.437 µg/mL (≈ 3.13 µM)
[3]
  EC50 (cell viability): over 4.5 mg/L
[4]; concentration that reduces fungal strain growth by 50%
  ECS0 (μg/ml) Aspergillus sp.: 6.335 µg/mL
[4]; concentration that reduces pathogen growth by 95%
  EC95 (μg/ml) Aspergillus sp.: 13.659 µg/mL (≈ 12.4 µM)

## CCCCCCCCCCCCCC1CC(=O)N[C@@H](CC(N)=O)C(=O)N[C@H](Cc2ccc(O)cc2)C(=O)N[C@H](CCC(N)=O)C(=O)N[C@@H](CCC(N)=O)C(=O)N2CCC[C@H]2C(=O)N[C@H](CO)C(=O)N[C@@H](CC(N)=O)C(=O)N1 (some centres unmarked) [Gln3-C16]
[3]
  EC50 (cell viability): over 4.5 mg/L
  toxicity compared with the conventional isoform, in words: significantly less toxic than the conventional A-C16 isoform

## n-C16
[5]
  MIC: 16 µM
[6]
  MIC: 16 µM

## CCCCCCCCCCCCCC1CC(=O)N[C@@H](CCC(N)=O)C(=O)N[C@H](Cc2ccc(O)cc2)C(=O)N[C@H](CC(N)=O)C(=O)N[C@@H](CCC(N)=O)C(=O)N2CCC[C@H]2C(=O)N[C@H](CO)C(=O)N[C@@H](CC(N)=O)C(=O)N1 (some centres unmarked) [Gln1-C16]
[1]
  EC50 value: 1.906 ppm
[2]
  EC50 value: 1.048 ppm
[3]
  EC50 (cell viability): 4.5 µg/mL (≈ 4.15 µM)
  toxicity compared with the conventional isoform, in words: significantly less toxic than the conventional A-C16 isoform

## Iturin A
[7]
  toxic effects on organs, in words: no toxic effects on the lungs, heart and kidneys

## conventional C17 isoform of mycosubtilin, ring Asn-Tyr-Asn-Gln-Pro-Ser-Asn (peaks 5, 6, 7; FIG. 1) (cyclo(N[dY][dN]QP[dS]N); not fully specified (N-terminus)) [A-C17]
[1]
  ECS0 (μg/ml) Z. tritici: 0.943 µg/mL
  EC95 (μg/ml) Z. tritici: 18.010 µg/mL
[2]
  ECS0 (μg/ml) B. cinerea: 0.467 µg/mL
  EC95 (μg/ml) B. cinerea: 0.677 µg/mL
[3]; Vero cells, XTT, range 0.14-4.5 mg/l, determined from FIG. 7
  EC50 (cell viability): around 1.7 mg/L
[4]; Aspergillus sp.
  EC50 value: 1.191 ppm
  EC95 value: 1.905 ppm
[4]; EC50, A-C17 versus Gln1-C17
  higher concentration of the former required to have the same activity as the latter: 14%
[4]; EC95, A-C17 versus Gln1-C17
  higher concentration of the former required to have the same activity as the latter: 32%
